# According to US20240409585A1, “MACROCYCLIC IMMUNOMODULATORS” (priority 2021, published 2024):
# Numbered stars: 1 amine (or outer) side, 2 acyl side, 3 side chain; on linkers, the order of the positions; unused ones are H or OH. Bridge positions count the residues as written; N and C are the ends. Square brackets hold non-standard residues; d marks the D form. Peptide text beside a SMILES is read from it. * marks the point of attachment. ξ: configuration not given here. X44 = COc1cc(F)cc(-c2ccc(C[C@H](N[*:1])C(=O)[*:2])cc2)c1; Phe(3-CONH2) = NC(=O)c1cccc(C[C@H](N)C(=O)O)c1; Phe(4-CONH2) = NC(=O)c1ccc(C[C@H](N)C(=O)O)cc1; Phe(4-COOH) = N[C@@H](Cc1ccc(C(=O)O)cc1)C(=O)O; Bip = N[C@@H](Cc1ccc(-c2ccccc2)cc1)C(=O)O; Phe(3-Me) = Cc1cccc(C[C@H](N)C(=O)O)c1; Val(3-OH) = CC(C)(O)[C@H](N)C(=O)O; 2Pal = N[C@@H](Cc1ccccn1)C(=O)O; 3Pal = N[C@@H](Cc1cccnc1)C(=O)O; 4Pal = N[C@@H](Cc1ccncc1)C(=O)O; 3Thi = N[C@@H](Cc1ccsc1)C(=O)O; Cha = N[C@@H](CC1CCCCC1)C(=O)O; Cit = NC(=O)NCCC[C@H](N)C(=O)O; Ile(3ξ) = CCC(C)[C@H](N)C(=O)O; Thr(3ξ) = CC(O)[C@H](N)C(=O)O; Carboxymethyl = O=C(O)C*; NMeA = CN[C@@H](C)C(=O)O; Orn = NCCC[C@H](N)C(=O)O; Dab = NCC[C@H](N)C(=O)O
# Biological target: T1, PE-labeled human PD-L1-Ig binding to Jurkat cell line over-expressing human PD-1 (Jurkat-PD-1) (Homo sapiens, UniProt Q15116)
# T1 construct: expressed in transfected cells; host or cells: Jurkat
# T1 sequence (Q15116 25-288): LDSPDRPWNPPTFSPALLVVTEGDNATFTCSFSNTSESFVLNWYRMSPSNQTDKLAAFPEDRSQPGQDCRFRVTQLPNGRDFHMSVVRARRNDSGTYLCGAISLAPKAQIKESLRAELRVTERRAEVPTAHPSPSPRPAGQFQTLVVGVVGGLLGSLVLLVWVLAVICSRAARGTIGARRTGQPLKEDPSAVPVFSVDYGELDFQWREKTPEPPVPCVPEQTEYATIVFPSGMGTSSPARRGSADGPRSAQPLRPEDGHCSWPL
# Test: Jurkat-PD-1 Cell Binding High-Content Screening Assay (CBA): Method 1
# Settings: Jurkat-hPD-1 cells, PE-labeled PD-L1-Ig 20 nM final; read-out: Jurkat HPDL1 PD1 IC50 (uM) (Method 1)
row,Structure (SMILES),IC50 [µM]
1,CC(C)C[C@H]1NC(=O)[C@H](C)N(C)C(=O)[C@H](Cc2ccc(OCC(=O)O)cc2)NC(=O)[C@H](Cc2ccc(-c3ccccc3)cc2)NC(=O)[C@H](Cc2ccc(C(=O)O)cc2)NC(=O)[C@H](Cc2c[nH]c3ccccc23)NC(=O)[C@H](CC(=O)O)NC(=O)[C@H](Cc2ccc(OCC(=O)O)cc2)NC(=O)[C@H](Cc2ccsc2)NC(=O)CSC[C@@H](C(=O)N[C@@H](CCN)C(N)=O)NC(=O)[C@H](CO)NC(=O)[C@H](C(C)(C)O)NC(=O)[C@H](CC2CCCCC2)NC(=O)[C@H](CCN)NC1=O [Compound 2130] ({CH2CO}-[3Thi]Y(Carboxymethyl)DW[Phe(4-COOH)][Bip]Y(Carboxymethyl)[NMeA][dL][Dab][Cha][Val(3-OH)]SC[Dab]-NH2; thioether N-14),0.03
2,CC(C)C[C@H]1NC(=O)[C@H](C)N(C)C(=O)[C@H](CCCCN)NC(=O)[C@H](Cc2ccc(-c3ccccc3)cc2)NC(=O)[C@H](C(C)C)NC(=O)[C@H](Cc2c[nH]c3ccccc23)NC(=O)[C@H](CC(=O)O)NC(=O)[C@H](Cc2ccncc2)NC(=O)[C@H](Cc2ccc(OCC(=O)O)cc2)NC(=O)CSC[C@@H](C(N)=O)NC(=O)[C@H](CO)NC(=O)[C@H](C(C)C)NC(=O)[C@H](CC2CCCCC2)NC(=O)[C@H](CC(N)=O)NC1=O [Compound 2244] ({CH2CO}-Y(Carboxymethyl)[4Pal]DWV[Bip]K[NMeA][dL]N[Cha]VSC-NH2; thioether N-14),0.04
3,COc1cc(F)cc(-c2ccc(C[C@@H]3NC(=O)[C@H](C(C)C)NC(=O)[C@H](Cc4c[nH]c5ccccc45)NC(=O)[C@H](CC(=O)O)NC(=O)[C@H](Cc4ccc(O)cc4)NC(=O)[C@H](CC(N)=O)NC(=O)CSC[C@@H](C(=O)N[C@@H](C)C(N)=O)NC(=O)[C@H]([C@@H](C)O)NC(=O)[C@H](C(C)C)NC(=O)[C@H](CC(C)C)NC(=O)[C@H](CCN)NC(=O)[C@@H](CC(C)C)NC(=O)[C@H](C)N(C)C(=O)[C@H](CCCNC(=N)N)NC3=O)cc2)c1 [Compound 1223] ({CH2CO}-NYDWV[X44]R[NMeA][dL][Dab]LVTCA-NH2; thioether N-14),0.32
4,CC(C)C[C@@H]1NC(=O)[C@H](CCN)NC(=O)[C@@H](CC(C)C)NC(=O)[C@H](C)N(C)C(=O)[C@H](CCCNC(N)=O)NC(=O)[C@H](Cc2ccc(-c3ccccc3)cc2)NC(=O)[C@H](C(C)C)NC(=O)[C@H](Cc2c[nH]c3ccccc23)NC(=O)[C@H](CC(=O)O)NC(=O)[C@H](Cc2ccc(O)cc2)NC(=O)[C@H](CCC(N)=O)NC(=O)CSC[C@@H](C(=O)N[C@@H](C)C(N)=O)NC(=O)[C@H]([C@@H](C)O)NC(=O)[C@H](C(C)C)NC1=O [Compound 1357] ({CH2CO}-QYDWV[Bip][Cit][NMeA][dL][Dab]LVTCA-NH2; thioether N-14),0.06
5,CCC(C)[C@@H]1NC(=O)[C@H](Cc2ccc(-c3ccccc3)cc2)NC(=O)[C@H](C(C)C)NC(=O)[C@H](Cc2c[nH]c3ccccc23)NC(=O)[C@H](CC(=O)O)NC(=O)[C@H](Cc2ccc(O)cc2)NC(=O)[C@H](Cc2ccncc2)NC(=O)CSC[C@@H](C(=O)N[C@@H](C)C(N)=O)NC(=O)[C@H](C(C)O)NC(=O)[C@H](CCN)NC(=O)[C@H](CC(C)C)NC(=O)[C@H](CC(N)=O)NC(=O)[C@@H](CC(C)C)NC(=O)[C@H](C)N(C)C1=O (stereo partly drawn) [Compound 2060] ({CH2CO}-[4Pal]YDWV[Bip][Ile(3ξ)][NMeA][dL]NL[Dab][Thr(3ξ)]CA-NH2; thioether N-14),0.28
6,CC(C)C[C@@H]1NC(=O)[C@H](CCCNC(=N)N)NC(=O)[C@@H](C(C)C)NC(=O)[C@H](C)N(C)C(=O)[C@H](CCCNC(=N)N)NC(=O)[C@H](Cc2ccc(-c3ccccc3)cc2)NC(=O)[C@H](C(C)C)NC(=O)[C@H](Cc2c[nH]c3ccccc23)NC(=O)[C@H](CC(=O)O)NC(=O)[C@H](Cc2ccc(O)cc2)NC(=O)[C@H](Cc2ccccc2)NC(=O)CSC[C@@H](C(=O)N[C@@H](C)C(N)=O)NC(=O)[C@H]([C@@H](C)O)NC(=O)[C@H](C(C)C)NC1=O [Compound 1060] ({CH2CO}-FYDWV[Bip]R[NMeA][dV]RLVTCA-NH2; thioether N-14),0.11
7,CC(C)C[C@@H]1NC(=O)[C@H](CCCN)NC(=O)[C@@H](CC(C)C)NC(=O)[C@H](C)N(C)C(=O)[C@H](CCCNC(=N)N)NC(=O)[C@H](Cc2ccc(-c3ccccc3)cc2)NC(=O)[C@H](C(C)C)NC(=O)[C@H](Cc2c[nH]c3ccccc23)NC(=O)[C@H](CC(=O)O)NC(=O)[C@H](Cc2ccc(OCC(=O)O)cc2)NC(=O)[C@H](Cc2cnc[nH]2)NC(=O)CSC[C@@H](C(=O)N[C@@H](C)C(N)=O)NC(=O)[C@H]([C@@H](C)O)NC(=O)[C@H](C(C)C)NC1=O [Compound 1148] ({CH2CO}-HY(Carboxymethyl)DWV[Bip]R[NMeA][dL][Orn]LVTCA-NH2; thioether N-14),0.05
8,Cc1cccc(C[C@@H]2NC(=O)[C@H](CC(=O)O)NC(=O)[C@H](Cc3ccc(C(N)=O)cc3)NC(=O)[C@H](Cc3ccncc3)NC(=O)CSC[C@@H](C(=O)N[C@@H](CCN)C(N)=O)NC(=O)[C@H](CO)NC(=O)[C@H](C(C)(C)O)NC(=O)[C@H](CC3CCCCC3)NC(=O)[C@H](CCN)NC(=O)[C@@H](CC(C)C)NC(=O)[C@H](C)N(C)C(=O)[C@H](Cc3ccc(OCC(=O)O)cc3)NC(=O)[C@H](Cc3ccc(-c4ccccc4)cc3)NC(=O)[C@H](Cc3ccc(OCC(=O)O)cc3)NC2=O)c1 [Compound 2138] ({CH2CO}-[4Pal][Phe(4-CONH2)]D[Phe(3-Me)]Y(Carboxymethyl)[Bip]Y(Carboxymethyl)[NMeA][dL][Dab][Cha][Val(3-OH)]SC[Dab]-NH2; thioether N-14),0.03
9,CC(C)C[C@@H]1NC(=O)[C@H](CCN)NC(=O)[C@@H](CC(C)C)NC(=O)[C@H](C)N(C)C(=O)[C@H](CCCNC(N)=O)NC(=O)[C@H](Cc2ccc(-c3ccccc3)cc2)NC(=O)[C@H](C(C)C)NC(=O)[C@H](Cc2c[nH]c3ccccc23)NC(=O)[C@H](CC(=O)O)NC(=O)[C@H](Cc2ccc(O)cc2)NC(=O)[C@H](CCCNC(=N)N)NC(=O)CSC[C@@H](C(=O)N[C@@H](C)C(N)=O)NC(=O)[C@H]([C@@H](C)O)NC(=O)[C@H](C(C)C)NC1=O [Compound 1351] ({CH2CO}-RYDWV[Bip][Cit][NMeA][dL][Dab]LVTCA-NH2; thioether N-14),0.05
10,CC(C)C[C@@H]1NC(=O)[C@H](Cc2c[nH]c3ccccc23)NC(=O)[C@H](CC(=O)O)NC(=O)[C@H](Cc2ccc(C(=O)O)cc2)NC(=O)[C@H](Cc2ccccc2)NC(=O)CSC[C@@H](C(=O)NCC(N)=O)NC(=O)[C@H](CO)NC(=O)[C@H](C(C)C)NC(=O)[C@H](CC(C)C)NC(=O)[C@H](CC(N)=O)NC(=O)[C@@H](CC(C)C)NC(=O)[C@H](C)N(C)C(=O)[C@H](C(C)C)NC(=O)[C@H](Cc2ccc(-c3ccccc3)cc2)NC1=O [Compound 1528] ({CH2CO}-F[Phe(4-COOH)]DWL[Bip]V[NMeA][dL]NLVSCG-NH2; thioether N-14),0.01
11,Cc1cccc(C[C@@H]2NC(=O)[C@H](CC(=O)O)NC(=O)[C@H](Cc3ccc(OCC(=O)O)cc3)NC(=O)[C@H](Cc3ccc(OCC(=O)O)cc3)NC(=O)CSC[C@@H](C(N)=O)NC(=O)[C@H](CC(N)=O)NC(=O)[C@H](C(C)C)NC(=O)[C@H](CC3CCCCC3)NC(=O)[C@H](CCN)NC(=O)[C@@H](CC(C)C)NC(=O)[C@H](C)N(C)C(=O)[C@H](Cc3ccc(OCC(=O)O)cc3)NC(=O)[C@H](Cc3ccc(-c4ccccc4)cc3)NC(=O)[C@H](Cc3ccc(OCC(=O)O)cc3)NC2=O)c1 [Compound 1653] ({CH2CO}-Y(Carboxymethyl)Y(Carboxymethyl)D[Phe(3-Me)]Y(Carboxymethyl)[Bip]Y(Carboxymethyl)[NMeA][dL][Dab][Cha]VNC-NH2; thioether N-14),0.03
12,CC(C)C[C@@H]1NC(=O)[C@H](CCN)NC(=O)[C@@H](CC(C)C)NC(=O)[C@H](C)N(C)C(=O)[C@H](CCCNC(N)=O)NC(=O)[C@H](Cc2ccc(-c3ccccc3)cc2)NC(=O)[C@H](C(C)C)NC(=O)[C@H](Cc2c[nH]c3ccccc23)NC(=O)[C@H](CC(=O)O)NC(=O)[C@H](Cc2ccccn2)NC(=O)[C@H](Cc2cccnc2)NC(=O)CSC[C@@H](C(=O)N[C@@H](C)C(N)=O)NC(=O)[C@H]([C@@H](C)O)NC(=O)[C@H](C(C)C)NC1=O [Compound 1334] ({CH2CO}-[3Pal][2Pal]DWV[Bip][Cit][NMeA][dL][Dab]LVTCA-NH2; thioether N-14),0.63
13,CC(C)C[C@@H]1NC(=O)[C@H](Cc2c[nH]c3ccccc23)NC(=O)[C@H](CC(=O)O)NC(=O)[C@H](Cc2ccc(OCC(=O)O)cc2)NC(=O)[C@H](Cc2ccccc2)NC(=O)CSC[C@@H](C(N)=O)NC(=O)[C@H](CO)NC(=O)[C@H](C(C)C)NC(=O)[C@H](CC(C)C)NC(=O)[C@H](CC(N)=O)NC(=O)[C@@H](CC(C)C)NC(=O)[C@H](C)N(C)C(=O)[C@H](CCCNC(N)=O)NC(=O)[C@H](Cc2ccc(-c3ccccc3)cc2)NC1=O [Compound 1627] ({CH2CO}-FY(Carboxymethyl)DWL[Bip][Cit][NMeA][dL]NLVSC-NH2; thioether N-14),0.06
14,CC(C)C[C@@H]1NC(=O)[C@H](CCCCN)NC(=O)[C@@H](CC(C)C)NC(=O)[C@H](C)N(C)C(=O)[C@H](CCCNC(=N)N)NC(=O)[C@H](Cc2ccc(-c3ccccc3)cc2)NC(=O)[C@H](C(C)C)NC(=O)[C@H](Cc2c[nH]c3ccccc23)NC(=O)[C@H](CC(=O)O)NC(=O)[C@H](Cc2ccc(O)cc2)NC(=O)[C@H](Cc2ccccc2)NC(=O)CSC[C@@H](C(=O)N[C@@H](CO)C(N)=O)NC(=O)[C@H]([C@@H](C)O)NC(=O)[C@H](C(C)C)NC1=O [Compound 1184] ({CH2CO}-FYDWV[Bip]R[NMeA][dL]KLVTCS-NH2; thioether N-14),0.13
15,Cc1cccc(C[C@@H]2NC(=O)[C@H](CC(=O)O)NC(=O)[C@H](Cc3ccc(OCC(=O)O)cc3)NC(=O)[C@H](CCN)NC(=O)CSC[C@@H](C(=O)N[C@@H](CO)C(N)=O)NC(=O)[C@H](CO)NC(=O)[C@H](C(C)(C)O)NC(=O)[C@H](CC3CCCCC3)NC(=O)[C@H](CCN)NC(=O)[C@@H](CC(C)C)NC(=O)[C@H](C)N(C)C(=O)[C@H](Cc3ccc(C(=O)O)cc3)NC(=O)[C@H](Cc3ccc(-c4ccccc4)cc3)NC(=O)[C@H](Cc3cccc(C(N)=O)c3)NC2=O)c1 [Compound 2178] ({CH2CO}-[Dab]Y(Carboxymethyl)D[Phe(3-Me)][Phe(3-CONH2)][Bip][Phe(4-COOH)][NMeA][dL][Dab][Cha][Val(3-OH)]SCS-NH2; thioether N-14),0.04
